Results reported in patent US20260217679A1, “CANCER TREATING COMPOUNDS” (UNIVERSITY OF BRADFORD, priority 2023, published 2026).
Where two headings read alike, the source gives them in different places.

Experiments:
[1] = system: RH41; experiment: Anti-proliferative activity in RMS cell lines, MTT assay; format: cell-based; conditions: Homo sapiens, read-out: IC50 RH41
Method: (§1) Briefly, […] of a cell suspension (~2000 cells/well) was added in fresh, sterile 96-well plates. Afterwards, rhabdomyosarcoma (RMS) cell lines (RH30, RH41 and JR1) were incubated for 24 h at 37° C., 5% CO2 to allow cellular attachment on the surface of the wells. On the next day after cell seeding, cells were treated with the duocarmycin compounds. 20 μL of drug dilution was added into the wells, making up a final volume of 200 μL/well. In untreated control wells, 20 μL of fresh medium was added instead (0.1% DMSO). Duocarmycin stock concentrations were prepared in DMSO; the concentration of the latter in the wells containing the medium and cells never exceeded 0.1% (v/v). The concentrations tested ranged from 100 μM to 1 pM depending on the IC50 of each compound from preliminary screening. Each experiment was tested at least in triplicate, and antiproliferative activity was determined after 96 hours using a standard MTT (3-(4,5-dimethylthiazol-2-yl)-2,5-diphenyltetrazolium bromide) assay.

[2] = system: JR1; experiment: as above; format: cell-based; conditions: read-out: IC50 JR1
Method: as §1

[3] = system: RH30; experiment: as above; format: cell-based; conditions: read-out: IC50 RH30
Method: as §1

[4] = system: H2AX phosphorylation in MDA-MB-231; experiment: H2AX phosphorylation Western Blot as marker of double-stranded DNA damage; format: cell-based, human; conditions: MDA-MB-231, Western Blot, FIG. 1
Source text: The mechanism of action of the naturally occurring duocarmycins is well documented and involves spirocyclization of the seco-duocamycins including those derived from the CBI and other aryl-ring-fused subunits of the duocarmycin alkylating subunit.

[5] = system: MCF-7; experiment: Growth inhibition of MCF-7 (oestrogen receptor positive) breast cancer cell line; format: cell-based; conditions: Homo sapiens
Method: (§2) The compounds of the present invention were evaluated for their ability to inhibit the growth of MDA-MB-231 (triple-negative) and MCF-7 (oestrogen receptor positive) breast cancer cell lines. A positive control (PC), seco-CBI-MI, with structure shown below, was used as a baseline for comparison of the efficacy of the compounds of the present invention.

[6] = system: MDA-MB-231; experiment: Growth inhibition of MDA-MB-231 (triple-negative) breast cancer cell line; format: cell-based; conditions: Homo sapiens
Method: as §2

[7] = MDA-MB-231, read-out: IC50 MDA MB 231
[8] = MCF7, MCF-7 growth inhibition, read-out: IC50 MCF7
[9] = MDA-MB-231 growth inhibition, read-out: IC50 MDA MB 231

Structure (SMILES) | IC50 ([1]; RH41, 96 hours, MTT) | IC50 ([2]; JR1, 96 hours, MTT) | IC50 ([3]; RH30, 96 hours, MTT) | DNA damage measured using H2AX phosphorylation [4] | IC50 ([5]; MCF7, read-out: IC50 MCF7) | IC50 ([1]; Rh41, 96 h) | IC50 ([2]; 96 h) | IC50 ([3]; Rh30, 96 h) | IC50 [6, 7] | IC50 [5, 8] | IC50 [6, 9]
COc1ccc2[nH]c(C(=O)N3CC(CCl)c4c3cc(O)c3ccccc43)cc2c1 (centres unmarked) [DP31] | 0.0368 ± 0.0316 nM | 0.243 ± 0.308 nM | 0.0861 ± 0.0248 nM | generated DNA damage |  |  |  |  |  |  | 
COc1ccc2[nH]c(C(=O)N3CC(CCl)c4c3cc(-c3ccc(O)cc3)c3ccccc43)cc2c1 (centres unmarked) [DP36] |  |  |  | generated DNA damage | 20 ± 27.1 nM | 24.9 ± 34 nM | 7.28 ± 6.1 nM | 6.69 ± 4.33 nM | 23.3 ± 9.9 nM |  | 
O=C(c1cc2cc(O)ccc2[nH]1)N1CC(CCl)c2c1cc(OCc1ccccc1)c1ccccc21 (centres unmarked) [DP40] | 530 ± 514 nM | 1400 ± 1240 nM | 227 ± 307 nM |  |  |  |  |  |  | 1300 ± 100 nM | 2200 ± 200 nM
C#CCCC(=O)Oc1ccc2[nH]c(C(=O)N3CC(CCl)c4c3cc(OCc3ccccc3)c3ccccc43)cc2c1 (centres unmarked) [DP42] |  |  |  |  |  | 378 ± 209 nM | 278 ± 156 nM | 81.5 ± 77.3 nM | 3200 ± 2900 nM |  | 
COc1ccc2[nH]c(C(=O)N3CC(CCl)c4c3cc(-c3ccc(CO)cc3)c3ccccc43)cc2c1 (centres unmarked) [DP44] |  |  |  |  | 4800 ± 4800 nM | 2800 ± 1960 nM | 4860 ± 4780 nM | 2190 ± 3100 nM | 5400 ± 5800 nM |  | 
COc1ccc2[nH]c(C(=O)N3CC(CCl)c4c3cc(-c3ccc(C)cc3)c3ccccc43)cc2c1 (centres unmarked) [DP45] |  |  |  | generated DNA damage | > 10000 nM | 68000 ± 50700 nM | 32900 ± 29100 nM | 56700 ± 37600 nM | > 10000 nM |  | 
COc1ccc2[nH]c(C(=O)N3CC(CCl)c4c3cc(-c3cccc(O)c3)c3ccccc43)cc2c1 (centres unmarked) [DP47] |  |  |  | generated DNA damage | 104 ± 79.8 nM | 19.2 ± 20.9 nM | 59.2 ± 27.2 nM | 60.3 ± 49.1 nM | 206 ± 79.6 nM |  | 
COc1ccc2[nH]c(C(=O)N3CC(CCl)c4c3cc(-c3ccc(N)cc3)c3ccccc43)cc2c1 (centres unmarked) [DP48] |  |  |  |  | 713 nM | 581 ± 648 nM | 5170 ± 4280 nM | 355 ± 352 nM | 911 nM |  | 
C#CCCCC(=O)Oc1ccc2[nH]c(C(=O)N3CC(CCl)c4c3cc(OCc3ccccc3)c3ccccc43)cc2c1 (centres unmarked) [DP51] |  |  |  |  |  | 2510 ± 1160 nM | 18500 ± 9640 nM | 1220 ± 830 nM | > 10000 nM |  | 
COc1ccc(Nc2cc3c(c4ccccc24)C(CCl)CN3C(=O)c2cc3cc(OC)ccc3[nH]2)cc1 (centres unmarked) [DP59] | 0.298 ± 0.154 nM | 1.33 ± 1.93 nM | 0.376 ± 0.157 nM | generated DNA damage |  |  |  |  |  | 2.5 ± 0.7 nM | 7.6 ± 2.1 nM
CCCCNc1cc2c(c3ccccc13)C(CCl)CN2C(=O)c1cc2cc(OC)ccc2[nH]1 (centres unmarked) [DP63] | 0.0204 ± 0.0114 nM | 0.217 ± 0.287 nM | 0.101 ± 0.048 nM |  |  |  |  |  |  | 0.8 ± 0.3 nM | 1.7 ± 1.4 nM
COC(=O)[C@H](CC(C)C)Nc1cc2c(c3ccccc13)C(CCl)CN2C(=O)c1cc2cc(OC)ccc2[nH]1 (some centres unmarked) [DP65] | 0.00551 ± 0.00229 nM | 0.323 ± 0.291 nM | 0.0763 ± 0.129 nM | generated DNA damage |  |  |  |  |  | 8.1 ± 7 nM | 28.3 ± 29 nM
COc1ccc2[nH]c(C(=O)N3CC(CCl)c4c3cc(Nc3ccc(C(F)(F)F)cc3)c3ccccc43)cc2c1 (centres unmarked) [DP70] | 31.2 ± 28.8 nM | 44.6 ± 56.1 nM | 18.9 ± 18.9 nM | generated DNA damage |  |  |  |  |  | 76.7 ± 29 nM | 129 ± 18.9 nM
COc1ccc2[nH]c(C(=O)N3CC(CCl)c4c3ccc3ccc(OCc5ccccc5)cc43)cc2c1 (centres unmarked) [DP77] |  |  |  |  | > 10000 nM | 22500 ± 17400 nM | 22100 ± 19600 nM | 3080 ± 2570 nM | > 10000 nM |  | 
COc1ccc2[nH]c(C(=O)N3CC(CCl)c4c3ccc3ccc(O)cc43)cc2c1 (centres unmarked) [DP78] |  |  |  |  | 1020 ± 200 nM | 500000 ± 416000 nM | 3510 ± 1840 nM | 268 ± 130 nM | 1080 ± 200 nM |  | 
COc1ccc(-c2cc3c(c4ccccc24)C(CCl)CN3C(=O)c2cc3cc(OC)ccc3[nH]2)cc1 (centres unmarked) [ICT11038, (1-(Chloromethyl)-5-(4-methoxyphenyl)-1H-benzo[e]indol-3(2H)-yl)(5-methoxy-1H-indol-2-yl)methanone] |  |  |  |  |  | 121000 ± 95300 nM | 801000 ± 207000 nM | 35.8 ± 16.4 nM |  |  | 
COCc1ccc(-c2cc3c(c4ccccc24)C(CCl)CN3C(=O)c2cc3cc(OC)ccc3[nH]2)cc1 (centres unmarked) [ICT11039, (1-(Chloromethyl)-5-(4-(methoxymethyl)phenyl)-1H-benzo[e]indol-3(2H)-yl)(5-methoxy-1H-indol-2-yl)methanone] |  |  |  |  |  | 1140 ± 500 nM | 10100 ± 5780 nM | 12800 ± 8460 nM |  |  | 
COc1ccc2[nH]c(C(=O)N3CC(CCl)c4c3cc(-c3ccncc3)c3ccccc43)cc2c1 (centres unmarked) [ICT11040, (1-(Chloromethyl)-5-(pyridin-4-yl)-1H-benzo[e]indol-3(2H)-yl)(5-methoxy-1H-indol-2-yl)methanone] |  |  |  |  |  | 576 ± 405 nM | 861 ± 329 nM | 494 ± 267 nM |  |  | 
COc1ccc2[nH]c(C(=O)N3CC(CCl)c4c3cc(-c3cccnc3)c3ccccc43)cc2c1 (centres unmarked) [ICT11041, (1-(Chloromethyl)-5-(pyridin-3-yl)-1H-benzo[e]indol-3(2H)-yl)(5-methoxy-1H-indol-2-yl)methanone] |  |  |  |  |  | 6000 ± 5120 nM | 12200 ± 4580 nM | 8040 ± 1030 nM |  |  | 
COc1ccc2[nH]c(C(=O)N3CC(CCl)c4c3cc(-c3ccccc3)c3ccccc43)cc2c1 (centres unmarked) [ICT11043, (1-(Chloromethyl)-5-phenyl-1H-benzo[e]indol-3(2H)-yl)(5-methoxy-1H-indol-2-yl)methanone] |  |  |  |  |  | 30200 ± 23100 nM | 138000 ± 75800 nM | 56000 ± 17000 nM |  |  | 
COc1ccc2[nH]c(C(=O)N3CC(CCl)c4c3cc(-c3ccccc3O)c3ccccc43)cc2c1 (centres unmarked) [ICT11044, (1-(Chloromethyl)-5-(2-hydroxyphenyl)-1H-benzo[e]indol-3(2H)-yl)(5-methoxy-1H-indol-2-yl)methanone] |  |  |  |  |  | 291 ± 204 nM | 422 ± 177 nM | 124 ± 134 nM |  |  | 
COc1ccc2[nH]c(C(=O)N3CC(CCl)c4c3cc(O)c3ccccc43)cc2c1 (centres unmarked) [PC, seco-CBI-MI, reference compound] |  |  |  |  |  |  |  |  |  | 0.69 ± 0.3 nM | 0.62 ± 0.5 nM
